Assay results from patent publication US12195482B1 (Arcus Biosciences, Inc., priority 2022, dated 2025).

What follows are compounds tested against T1, Axl (Homo sapiens, UniProt P30530) (assay: Biochemical potency, HTRF KinEASE-TK kinase assay). Conditions: 5 nM AXL, 700 μM ATP.
T1 sequence (P30530 26-894): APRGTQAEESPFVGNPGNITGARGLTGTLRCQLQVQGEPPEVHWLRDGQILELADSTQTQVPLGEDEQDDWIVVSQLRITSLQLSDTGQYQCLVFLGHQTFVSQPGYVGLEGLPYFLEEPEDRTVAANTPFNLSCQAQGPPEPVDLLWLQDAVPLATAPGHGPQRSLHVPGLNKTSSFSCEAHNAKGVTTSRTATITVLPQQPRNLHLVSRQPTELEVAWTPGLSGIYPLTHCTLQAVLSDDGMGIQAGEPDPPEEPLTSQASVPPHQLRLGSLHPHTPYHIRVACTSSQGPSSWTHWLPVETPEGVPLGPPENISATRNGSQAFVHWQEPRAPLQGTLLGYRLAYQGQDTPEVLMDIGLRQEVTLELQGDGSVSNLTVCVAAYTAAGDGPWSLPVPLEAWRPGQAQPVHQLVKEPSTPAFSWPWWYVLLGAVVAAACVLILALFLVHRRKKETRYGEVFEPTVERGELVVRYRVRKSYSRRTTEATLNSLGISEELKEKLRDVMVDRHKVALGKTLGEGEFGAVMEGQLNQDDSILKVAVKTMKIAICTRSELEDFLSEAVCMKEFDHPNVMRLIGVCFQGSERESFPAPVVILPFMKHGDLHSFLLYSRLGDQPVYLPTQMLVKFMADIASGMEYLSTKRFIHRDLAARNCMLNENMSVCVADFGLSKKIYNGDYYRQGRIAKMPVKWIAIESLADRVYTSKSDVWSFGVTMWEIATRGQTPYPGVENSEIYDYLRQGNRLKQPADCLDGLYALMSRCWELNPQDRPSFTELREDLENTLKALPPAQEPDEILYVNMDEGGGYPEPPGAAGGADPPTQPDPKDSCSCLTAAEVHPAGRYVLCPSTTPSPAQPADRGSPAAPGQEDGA
Design: purchased Invitrogen
Method in brief: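 Enzyme (AXL 5 nM; TYRO3 or MER 1 nM final) was preincubated with compound for 1 h at RT, then reacted for 2 h at RT with 800 nM biotinylated TK substrate and 700 µM ATP in HEPES pH 7.4, MgCl2, DTT, BSA, 1% DMSO. Percent activity came from the HTRF 665/620 ratio.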

IC50, < 100 nM:
Cc1cnc(C)c(-c2ccc(-c3c[nH]c4ncc(-c5ccc6c(c5)CC[C@@H](N5C7COCC5C7)CC6)cc34)cc2)n1 [Example 53, 6-[(7S)-2-{3-[4-(3,6-Dimethylpyrazin-2-yl)phenyl]-1H-pyrrolo[2,3-b]pyridin-5-yl}-6,7,8,9-tetrahydro-5H-benzo[7]annulen-7-yl]-3-oxa-6-azabicyclo[3.1.1]heptane]
FC(F)c1cccnc1-c1ccc(-c2n[nH]c3ncc(-c4ccc5c(c4)CC[C@@H](N4C6COCC4C6)CC5)cc23)cc1 [Example 89, 6-[(7S)-3-[3-[4-[3-(Difluoromethyl)pyridin-2-yl]phenyl]-1H-pyrazolo[3,4-b]pyridin-5-yl]-6,7,8,9-tetrahydro-5H-benzo[7]annulen-7-yl]-3-oxa-6-azabicyclo[3.1.1]heptane]
Cc1cnc(-c2ccc(-c3c[nH]c4ncc(-c5ccc6c(c5)CC[C@@](C)(N5CCC[C@H]5C)CC6)cc34)cc2)c(C)n1 [Example 57, 3,5-Dimethyl-2-(4-{5-[(7S)-7-methyl-7-[(2R)-2-methylpyrrolidin-1-yl]-6,7,8,9-tetrahydro-5H-benzo[7]annulen-2-yl]-1H-pyrrolo[2,3-b]pyridin-3-yl}phenyl)pyrazine]
Cc1cnc(-c2ccc(-c3c[nH]c4ncc(-c5ccc6c(c5)CC[C@@H](N5C7COCC5C7)CC6)cc34)cc2)c(C)n1 [Example 50, 6-[(7S)-2-{3-[4-(3,5-Dimethylpyrazin-2-yl)phenyl]-1H-pyrrolo[2,3-b]pyridin-5-yl}-6,7,8,9-tetrahydro-5H-benzo[7]annulen-7-yl]-3-oxa-6-azabicyclo[3.1.1]heptane]
COc1ccnc(-c2ccc(-c3n[nH]c4ncc(-c5ccc6c(c5)CC[C@@H](N5C7COCC5C7)CC6)cc34)cc2)c1C [Example 87, 6-[(7S)-3-[3-[4-(4-Methoxy-3-methylpyridin-2-yl)phenyl]-1H-pyrazolo[3,4-b]pyridin-5-yl]-6,7,8,9-tetrahydro-5H-benzo[7]annulen-7-yl]-3-oxa-6-azabicyclo[3.1.1]heptane]
COCCOc1cccnc1-c1ccc(-c2c[nH]c3ncc(-c4ccc5c(c4)CC[C@@H](N4C6COCC4C6)CC5)cc23)cc1 [Example 3, 6-[(7S)-2-(3-{4-[3-(2-Methoxyethoxy)pyridin-2-yl]phenyl}-1H-pyrrolo[2,3-b]pyridin-5-yl)-6,7,8,9-tetrahydro-5H-benzo[7]annulen-7-yl]-3-oxa-6-azabicyclo[3.1.1]heptane]
N#Cc1cccnc1-c1ccc(-c2n[nH]c3ncc(-c4ccc5c(c4)CC[C@@H](N4C6COCC4C6)CC5)cc23)cc1 [Example 52, 2-(4-{5-[(7S)-7-{3-Oxa-6-azabicyclo[3.1.1]heptan-6-yl}-6,7,8,9-tetrahydro-5H-benzo[7]annulen-2-yl]-1H-pyrazolo[3,4-b]pyridin-3-yl}phenyl)pyridine-3-carbonitrile]
COc1ccnc(-c2ccc(-c3c[nH]c4ncc(-c5ccc6c(c5)CC[C@@H](N5C7COCC5C7)CC6)cc34)cc2)c1C [Example 86, 6-[(7S)-3-[3-[4-(4-Methoxy-3-methylpyridin-2-yl)phenyl]-1H-pyrrolo[2,3-b]pyridin-5-yl]-6,7,8,9-tetrahydro-5H-benzo[7]annulen-7-yl]-3-oxa-6-azabicyclo[3.1.1]heptane]
Cc1ccnnc1-c1ccc(-c2n[nH]c3ncc(-c4ccc5c(c4)CC[C@@H](N4C6COCC4C6)CC5)cc23)nc1 [Example 56, 6-[(7S)-2-{3-[5-(4-Methylpyridazin-3-yl)pyridin-2-yl]-1H-pyrazolo[3,4-b]pyridin-5-yl}-6,7,8,9-tetrahydro-5H-benzo[7]annulen-7-yl]-3-oxa-6-azabicyclo[3.1.1]heptane]
Cc1cnc(C)c(-c2ccc(-c3c[nH]c4ncc(-c5ccc6c(c5)CC[C@@](C)(N5CCC[C@H]5C)CC6)cc34)cc2)n1 [Example 58, 2,5-Dimethyl-3-(4-{5-[(7S)-7-methyl-7-[(2R)-2-methylpyrrolidin-1-yl]-6,7,8,9-tetrahydro-5H-benzo[7]annulen-2-yl]-1H-pyrrolo[2,3-b]pyridin-3-yl}phenyl)pyrazine]
FC(F)(F)c1cccnc1-c1ccc(-c2n[nH]c3ncc(-c4ccc5c(c4)CC[C@@H](N4C6COCC4C6)CC5)cc23)cc1 [Example 88, 6-[(7S)-3-[3-[4-[3-(Trifluoromethyl)pyridin-2-yl]phenyl]-1H-pyrazolo[3,4-b]pyridin-5-yl]-6,7,8,9-tetrahydro-5H-benzo[7]annulen-7-yl]-3-oxa-6-azabicyclo[3.1.1]heptane]
Cc1cc(C)c(-c2ccc(-c3n[nH]c4ncc(-c5ccc6c(c5)CC[C@@](C)(N5CCC[C@H]5C)CC6)cc34)cc2)nn1 [Example 78, 4,6-Dimethyl-3-(4-{5-[(7S)-7-methyl-7-[(2R)-2-methylpyrrolidin-1-yl]-6,7,8,9-tetrahydro-5H-benzo[7]annulen-2-yl]-1H-pyrazolo[3,4-b]pyridin-3-yl}phenyl)pyridazine]
Cc1nccnc1-c1ccc(-c2c[nH]c3ncc(-c4ccc5c(c4)CC[C@@H](N4C6COCC4C6)CC5)cc23)nc1 [Example 54, 6-[(7S)-2-{3-[5-(3-Methylpyrazin-2-yl)pyridin-2-yl]-1H-pyrrolo[2,3-b]pyridin-5-yl}-6,7,8,9-tetrahydro-5H-benzo[7]annulen-7-yl]-3-oxa-6-azabicyclo[3.1.1]heptane]
c1ccc(-c2ccc(-c3c[nH]c4ncc(-c5ccc6c(c5)CC[C@@H](N5C[C@@H]7C[C@H]5CO7)CC6)cc34)cc2)nc1 [Example 33, (1S,4S)-5-[(7S)-3-[3-(4-Pyridin-2-ylphenyl)-1H-pyrrolo[2,3-b]pyridin-5-yl]-6,7,8,9-tetrahydro-5H-benzo[7]annulen-7-yl]-2-oxa-5-azabicyclo[2.2.1]heptane]
Cc1ccnnc1-c1ccc(-c2c[nH]c3ncc(-c4ccc5c(c4)CC[C@@](C)(N4CCC[C@H]4C)CC5)cc23)cc1 [Example 51, 4-methyl-3-(4-{5-[(7S)-7-Methyl-7-[(2R)-2-methylpyrrolidin-1-yl]-6,7,8,9-tetrahydro-5H-benzo[7]annulen-2-yl]-1H-pyrrolo[2,3-b]pyridin-3-yl}phenyl)pyridazine]
Cc1cnc(-c2ccc(-c3c[nH]c4ncc(-c5ccc6c(c5)CC[C@@H](N5CCCC5)CC6)cc34)cc2)c(C)n1 [Example 59, 3,5-Dimethyl-2-(4-{5-[(7S)-7-(pyrrolidin-1-yl)-6,7,8,9-tetrahydro-5H-benzo[7]annulen-2-yl]-1H-pyrrolo[2,3-b]pyridin-3-yl}phenyl)pyrazine]
Cc1cc(C)c(-c2ccc(-c3c[nH]c4ncc(-c5ccc6c(c5)CC[C@@H](N5C7COCC5C7)CC6)cc34)cc2)nn1 [Example 80, 6-[(7S)-2-{3-[4-(4,6-Dimethylpyridazin-3-yl)phenyl]-1H-pyrrolo[2,3-b]pyridin-5-yl}-6,7,8,9-tetrahydro-5H-benzo[7]annulen-7-yl]-3-oxa-6-azabicyclo[3.1.1]heptane]
Cc1cc(C)c(-c2ccc(-c3n[nH]c4ncc(-c5ccc6c(c5)CC[C@@H](N5C7COCC5C7)CC6)cc34)cc2)nn1 [Example 77, 6-[(7S)-2-{3-[4-(4,6-Dimethylpyridazin-3-yl)phenyl]-1H-pyrazolo[3,4-b]pyridin-5-yl}-6,7,8,9-tetrahydro-5H-benzo[7]annulen-7-yl]-3-oxa-6-azabicyclo[3.1.1]heptane]
CC(C)(C#N)c1cccnc1-c1ccc(-c2n[nH]c3ncc(-c4ccc5c(c4)CC[C@@H](N4C6COCC4C6)CC5)cc23)cc1 [Example 85, 2-Methyl-2-[2-[4-[5-[(7S)-7-(3-oxa-6-azabicyclo[3.1.1]heptan-6-yl)-6,7,8,9-tetrahydro-5H-benzo[7]annulen-3-yl]-1H-pyrazolo[3,4-b]pyridine-3-yl]phenyl]pyridine-3-yl]propanenitrile]
